Source: US6770782B1, “Process for the production of potassium hydroxy citric acid, and compositions containing the potassium hydroxy citric acid” (Sabinsa Corporation, priority 1995, dated 2004)
“Also recorded” adds a separate entry of the source.

Experiments:
citrate lyase = molecular target: T1, citrate lyase (Homo sapiens, UniProt P53396); settings: cited from earlier work
T1 sequence (P53396 1-1101): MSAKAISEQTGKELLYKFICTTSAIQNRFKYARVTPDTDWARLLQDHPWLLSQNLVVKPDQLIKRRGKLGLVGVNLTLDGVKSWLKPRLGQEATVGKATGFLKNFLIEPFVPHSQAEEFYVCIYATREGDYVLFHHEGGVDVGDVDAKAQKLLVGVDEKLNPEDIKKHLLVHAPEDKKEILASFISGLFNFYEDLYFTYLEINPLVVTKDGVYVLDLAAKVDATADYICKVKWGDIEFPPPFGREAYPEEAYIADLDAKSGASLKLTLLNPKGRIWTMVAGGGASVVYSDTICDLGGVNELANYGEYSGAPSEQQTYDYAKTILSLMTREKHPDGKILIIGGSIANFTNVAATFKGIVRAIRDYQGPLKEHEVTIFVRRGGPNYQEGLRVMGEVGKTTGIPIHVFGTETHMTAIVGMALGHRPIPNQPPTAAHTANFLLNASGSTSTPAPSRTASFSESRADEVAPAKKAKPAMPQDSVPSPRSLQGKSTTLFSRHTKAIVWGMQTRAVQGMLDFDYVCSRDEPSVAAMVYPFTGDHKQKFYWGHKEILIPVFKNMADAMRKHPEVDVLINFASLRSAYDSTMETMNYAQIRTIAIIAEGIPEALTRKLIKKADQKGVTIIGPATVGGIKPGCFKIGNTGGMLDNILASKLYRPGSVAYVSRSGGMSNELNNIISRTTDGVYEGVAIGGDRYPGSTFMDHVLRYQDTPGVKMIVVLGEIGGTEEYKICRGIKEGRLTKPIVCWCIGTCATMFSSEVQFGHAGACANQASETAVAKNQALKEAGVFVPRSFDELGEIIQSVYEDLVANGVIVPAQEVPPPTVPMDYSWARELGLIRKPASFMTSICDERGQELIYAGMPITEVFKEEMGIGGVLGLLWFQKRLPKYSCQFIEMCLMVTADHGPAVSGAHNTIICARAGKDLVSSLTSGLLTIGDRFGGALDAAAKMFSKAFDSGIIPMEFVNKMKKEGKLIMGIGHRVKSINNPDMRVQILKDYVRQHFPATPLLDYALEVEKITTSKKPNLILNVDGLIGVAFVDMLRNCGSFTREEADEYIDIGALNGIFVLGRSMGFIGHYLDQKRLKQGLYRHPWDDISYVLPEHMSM

[1] = free acid converts to lactone; cited from earlier work
[2] = rats, cited from earlier work
[3] = test system: gluconeogenesis in rat liver; settings: HCA-treated rats; cited from earlier work
[4] = in vivo; cited from earlier work
[5] = solubility (product specification); format: physicochemical
[6] = stability of the product in solid state and in aqueous solution; format: physicochemical
Protocol: The stability of the product was evaluated in solid state and in aqueous solution in temperature and humidity conditions as specified below. The following parameters of the product were considered: physical appearance, specific rotation, HCA content by HPLC, lactone content by HPLC. […]
b) 37°±2° C. and 75%±2 relative humidity c) 45°±2° C. and 75%±2 relative humidity
2. In solution form (5% in water)

Molecule: O=C1C[C@@](O)(C(=O)O)[C@@H](C(=O)O)O1 [HCA in lactone form, hydroxy citric acid lactone]
- inhibiting the citrate lyase (citrate lyase; lactone form): inactive, or less active
- stability of the form [1]: stable

Molecule: O=C(O)CC(O)(C(=O)O)C(O)C(=O)O (centres unmarked) [HCA, hydroxycitric acid]
- Ki (citrate lyase; competitive inhibition, read-out: Ki, competitive inhibitor of citrate lyase): 150 nM
- affinity of the enzyme for HCA versus affinity for citric acid (citrate lyase; relative to citric acid): over a hundred times greater
- less weight gained than the controls ([2]; 80 day study period): 78%
- net reduction in food consumption ([2]; 80 day study period): 4%
- food consumption suppressed ([2]; HCA 1% or more of the diet): ≥ 10%
- rate of gluconeogenesis from lactate or alanine [3]: approximately doubled
- brain uptake [4]: negligible
- stability of the form [1]: not stable

Molecule: potassium hydroxy citrate [CITRIN®-K]
- Solubility ([5]; citrate): Soluble in water, acids and aqueous; also recorded: alcohols. Insoluble in solvents like
- Solubility ([5]; listed as potassium hydroxy citrate): water soluble
- stable under normal storage conditions ([6]; extrapolated from 90 day stress results): about 5 years
- stable under stress conditions ([6]; higher temperature and higher humidity, solid state and 5% in water): ≥ 90 days
